X-ray crystallography data for 1 molecule are collected here from PMC9128668 (Nature, 2021).

The target in this experiment is T1, BT1622^3S-Gal/GalNAc (Bacteroides thetaiotaomicron, UniProt Q8A7A3).
T1 sequence (Q8A7A3 21-500): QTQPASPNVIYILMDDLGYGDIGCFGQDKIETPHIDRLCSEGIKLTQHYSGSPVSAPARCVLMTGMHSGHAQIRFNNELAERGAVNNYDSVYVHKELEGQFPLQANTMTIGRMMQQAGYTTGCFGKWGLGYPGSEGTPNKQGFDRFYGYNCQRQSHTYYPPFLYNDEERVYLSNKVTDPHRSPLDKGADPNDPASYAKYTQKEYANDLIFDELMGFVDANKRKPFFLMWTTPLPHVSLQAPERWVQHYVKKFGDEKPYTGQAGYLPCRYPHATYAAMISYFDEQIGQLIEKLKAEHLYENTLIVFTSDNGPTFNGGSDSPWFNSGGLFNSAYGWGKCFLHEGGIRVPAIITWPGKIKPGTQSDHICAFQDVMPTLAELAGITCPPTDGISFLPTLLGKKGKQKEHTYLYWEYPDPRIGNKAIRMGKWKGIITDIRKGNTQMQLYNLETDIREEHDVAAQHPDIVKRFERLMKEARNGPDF
Briefly: X-ray crystallography. The format is binding. The note with it: active site; Ca2+; inactive Ser form; 100 mM ligand.

Take `CC(=O)N[C@H]1C(O)O[C@H](CO)[C@H](O)[C@@H]1O` (stereo partly shown) [GalNAc]: the X-ray crystallography entry is reported as “BT1622^3S-Gal/GalNAc in complex with GalNAc”.
